One series has as its system Gadd45a mRNA. Put plainly: Ursolic acid i.p., Gadd45a mRNA by qPCR in immobilized TA muscle. To be noted: ursolic acid 200 mg/kg i.p. twice a day from day 0; TA immobilized day 2; harvest day 5; vs vehicle (corn oil). Format: in vivo, C57BL/6 mice. The procedure:
(§1) (A-E) Beginning on day 0, 6-8 wk old male C57BL/6 mice were given i.p. injections of ursolic acid (200 mg/kg) or an equal volume of vehicle (corn oil) twice a day. On day 2, the left tibialis anterior (TA) muscle of each mouse was immobilized. During immobilization, vehicle or ursolic acid continued to be administered via i.p. injection twice daily, and the right TA remained mobile and served as an intrasubject control. (A) On day 5, mice were euthanized and bilateral TA muscles were harvested. mRNA levels were determined with qPCR. In each mouse, mRNA levels from the immobile TA were normalized to values from the mobile TA, which were set at one. Data are means±SEM from ≧6 mice per condition. * P<0.05. (B-E) On day 8, bilateral TA muscles were harvested and weighed. (B) Effect of ursolic acid on skeletal muscle weight. In each mouse, the left (immobile) TA weight was normalized to the right (mobile) TA weight. Data are means±SEM from 10 mice per condition; ***P<0.001 by unpaired t-test. (C-E) Effect of ursolic acid on skeletal muscle fiber diameter. […]
(§2) Exon Arrays and Quantitative Real-Time RT-PCR (qPCR) in Muscle and Myotubes—Extraction of skeletal muscle RNA and RNA hybridizations to Mouse Exon 1.0 ST arrays (Affymetrix) were performed as described previously (Ebert, S. M., et al. (2010) Mol. Endocrinol. 24, 790-799). […]
For orientation: Real-time PCR tracks product formation cycle by cycle.

The test system of another series is Cdkn1a mRNA. Put plainly: Ursolic acid i.p., Cdkn1a mRNA by qPCR in immobilized TA muscle. The series is classed as in vivo, C57BL/6 mice. To be noted: ursolic acid 200 mg/kg i.p. twice a day from day 0; TA immobilized day 2; harvest day 5; vs vehicle (corn oil). The procedure:
as §1, §2

In series [1] the test system is immobilized tibialis anterior (TA) muscle. Put plainly: Ursolic acid i.p., immobilization-induced skeletal muscle atrophy (TA weight, fiber diameter). The series is classed as in vivo, C57BL/6 mice. The conditions noted are these: 200 mg/kg i.p. twice a day from day 0; TA immobilized day 2; harvest day 8; vs vehicle (corn oil). The procedure:
as §1, with “diameter. (C) Data are mean fiber diameters ±SEM from 10 immobilized TA muscles per condition; ***P<0.0001 by unpaired t-test. (D) Representative cross-sections of muscle fibers immunostained with anti-laminin antibody. (E) Data are fiber size distributions of >3000 fibers from 10 immobilized TA muscles per condition.” for “diameter.”

Series [2] has as its system tibialis anterior (TA) muscle. Kind of series: Ursolic acid i.p., recovery from immobilization-induced skeletal muscle atrophy after remobilization. To be noted: TA immobilized 7 days, then remobilized; 200 mg/kg i.p. twice daily started at remobilization; vs vehicle. Format: in vivo, mouse.
Series [3] relates to quadriceps muscle mRNAs (IGF-I, Ar, Ppargc1a, Tfam, Nos1, Vegfa, Hk2). Kind of series: Diet containing 0.14% ursolic acid, qPCR of quadriceps muscle mRNAs. The series is classed as in vivo, C57BL/6 mice. To be noted: diet containing 0.14% ursolic acid for 6 weeks, vs control diet. The procedure:
(§3) (A) C57BL/6 mice were fed diets lacking or containing 0.14% ursolic acid for 6 weeks before quadriceps muscles were harvested for qPCR analysis of the indicated mRNAs. mRNA levels in ursolic acid-treated mice were normalized to mRNA levels in control mice, which were set at one. Data are means±SEM from 10 mice per condition; *P<0.05, **P<0.01. (B) Cultured C2C12 myoblasts were serum-starved for 6 hours, and then incubated for 2 minutes in the absence or presence of ursolic acid (10 μM) and/or recombinant human growth hormone (100 ng/ml), as indicated. Total cellular protein extracts were subjected to immunoprecipitation with anti-GHR antibody, followed by immunoblot analysis with anti-phospho-tyrosine or anti-GHR antibodies to assess phospho-GHR and total GHR, respectively.
Exon Arrays and Quantitative Real-Time RT-PCR (qPCR) in Muscle and Myotubes—Extraction of skeletal muscle RNA and RNA hybridizations to Mouse Exon 1.0 ST arrays (Affymetrix) were performed as described previously (Ebert, S. M., et al. (2010) Mol. Endocrinol. 24, 790-799). Exon expression arrays examining the effects of Gadd45a overexpression, fasting and muscle denervation in TA muscles of C57BL/6 mice were described previously (Banduseela, V. C., et al. (2009) Physiol. Genomics 39, 141-159; Welle, S., et al. (2004) Exp. Gerontol. 39, 369-377) and can be found in the NCBI Gene Expression Omnibus under GEO Series accession numbers GSE39196, GSE20103 and GSE39195, respectively. Myotube RNA was extracted using TRIzol solution (Invitrogen), and then purified using the RNeasy kit and RNase Free DNase Set (Qiagen). qPCR analyses of mRNAs encoding mouse ATF4, Gadd45a, Bax, caspase-3 (Casp3), androgen receptor (Ar), thyroid hormone receptor-α (Thra), growth hormone receptor (Ghr), hexokinase 2 (Hk2), Suclg1, Coxl1, Tfam, Nos1, MuRF1 (Trim63), atrogin-1 (Fbxo32), cathepsin L (Ctsl), Bnip3, Cdkn1a, PGC-1α (Ppargc1a), GLUT4 (S1c2a4), LC3a (Mapl1c3a) and Vegfa were performed using TaqMan Gene Expression Assays (Applied Biosystems). For qPCR studies, first strand cDNA was synthesized in a 20 μl reaction that contained 2 μg of RNA, random hexamer primers and components of the High Capacity cDNA reverse transcription kit (Applied Biosystems). qPCR was carried out using a 7500 Fast Real-Time PCR System (Applied Biosystems). All qPCR reactions were performed in triplicate and the cycle threshold (Ct) values were averaged to give the final results. To analyze the data, the ΔCt method was used, with level of 36B4 mRNA serving as the invariant control.
To test this, C57BL/6 mice were fed diets lacking or containing 0.14% ursolic acid for 6 weeks before quadriceps muscles were harvested for qPCR analysis. […] These effects of ursolic acid are consistent with ursolic acid's capacity to decrease Gadd45a and Cdkn1a expression.

The target of series [4] is T1, growth hormone receptor (GHR) (Mus musculus, UniProt P16882).
T1 construct: endogenous in cells; host or cells: C2C12 mouse myoblasts (ATCC CRL-1772), serum-starved for 6 hours
T1 sequence (P16882 25-650): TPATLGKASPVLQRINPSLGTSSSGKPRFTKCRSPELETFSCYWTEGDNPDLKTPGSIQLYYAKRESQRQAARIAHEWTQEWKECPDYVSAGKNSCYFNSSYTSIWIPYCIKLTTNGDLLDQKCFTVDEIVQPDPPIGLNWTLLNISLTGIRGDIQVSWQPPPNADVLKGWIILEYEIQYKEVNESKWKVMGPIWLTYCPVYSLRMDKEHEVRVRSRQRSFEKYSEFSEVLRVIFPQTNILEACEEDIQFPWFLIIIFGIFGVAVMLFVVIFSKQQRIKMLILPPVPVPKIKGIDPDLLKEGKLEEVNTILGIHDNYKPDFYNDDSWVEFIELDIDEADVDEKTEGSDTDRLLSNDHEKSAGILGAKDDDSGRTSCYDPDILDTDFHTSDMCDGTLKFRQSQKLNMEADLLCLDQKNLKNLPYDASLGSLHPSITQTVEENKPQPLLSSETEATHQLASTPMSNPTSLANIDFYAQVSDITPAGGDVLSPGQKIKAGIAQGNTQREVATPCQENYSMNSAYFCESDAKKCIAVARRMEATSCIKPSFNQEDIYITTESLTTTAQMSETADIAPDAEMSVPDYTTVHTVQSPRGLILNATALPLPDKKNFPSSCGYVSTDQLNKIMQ
Put plainly: GHR phosphorylation in serum-starved C2C12 myoblasts (anti-GHR immunoprecipitation, phospho-tyrosine immunoblot). The conditions noted are these: ursolic acid 10 μM, 2 minutes; C2C12 myoblasts serum-starved 6 hours; absence or presence of recombinant human growth hormone 100 ng/ml. The series is classed as cell-based. Here is the method: as §3
C2C12 Myotube Culture and Infection—Mouse C2C12 myoblasts were obtained from ATCC (CRL-1772), and maintained at 37° C. and 5% CO2 in Dulbecco's modified Eagle's medium (DMEM) (ATCC #30-2002) containing antibiotics (100 units/ml penicillin, 100 μg/ml streptomycin sulfate) and 10% (v/v) fetal bovine serum (FBS). Myoblasts were set up for experiments on day 0 in 6-well plates at a density of 2.5×10^5 cells/well. On day 2, differentiation was induced by replacing 10% FBS with 2% horse serum. On day 7, cells were rinsed once with PBS, and then 1 ml DMEM containing adenovirus was added to each well. […]
For orientation: Immunoblotting shows a protein as a band on a membrane.

For series [5] the following is noted: general statement, no test described; cited from earlier work.

This is an account of results in US20140371188A1, “COMPOSITIONS AND METHODS FOR INHIBITING MUSCLE ATROPHY AND INDUCING MUSCLE HYPERTROPHY” (UNIVERSITY OF IOWA RESEARCH FOUNDATION, priority 2011, published 2014).

“3-β-hydroxy-urs-12-en-28-oic acid [ursolic acid]”: in the series with Gadd45a mRNA, the “Gadd45a mRNA, immobile TA normalized to mobile TA” value is recorded as “prevented induction”. Also, in the series with Cdkn1a mRNA, the “Cdkn1a mRNA, immobile TA normalized to mobile TA” value was “prevented induction”. In addition, in series [1], the “TA muscle weight, left (immobile) normalized to right (mobile)” value was “reduced the loss of muscle mass” and the “size (diameter) of skeletal muscle fibers in immobilized TA muscles” value is recorded as “increased the size of skeletal muscle fibers”. In addition, the “recovery of skeletal muscle mass after remobilization” value in series [2] is “significantly enhanced the recovery of skeletal muscle mass”. Besides, in series [3], the “Hk2 mRNA in quadriceps” value is “increased”, the “IGF-I mRNA in quadriceps” value is “increased”, the “Nos1 mRNA in quadriceps” value is recorded as “increased” and the “PGC-1α (Ppargc1a) mRNA in quadriceps” value was “increased”. In series [3], the “Tfam mRNA in quadriceps” value is “increased”, the “Vegfa mRNA in quadriceps” value is “increased” and the “androgen receptor (Ar) mRNA in quadriceps” value was “increased”. Further, the “GHR phosphorylation (phospho-GHR vs total GHR)” value in series [4] is on record as “increased GHR phosphorylation”. In addition, the water solubility result in series [5] is on record as “highly water-insoluble”.
